# Experimental data reported in paper PMC11191095, “QSAR Reveals Decreased Lipophilicity of Polar Residues Determines the Selectivity of Antimicrobial Peptide Activity” (ACS Omega, 2024).
# Where a SMILES comes first, the peptide text is derived from it.
# Tests used:
# Assay in all cases: microbe, parasite or virus in culture
# P. aeruginosa NCTC 13437 = format: cell-based, Pseudomonas aeruginosa; conditions: P. aeruginosa NCTC 13437 (R)
# Summary of the method: (§1)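 Peptides 128→2 μg/mL, 2-fold series; inoculum ~5 × 10^5 CFU/mL from overnight culture (OD600 0.01, mixed 1:1). MHB non-cation-adjusted for bacteria, RPMI 1640 + 2% glucose for fungi. 37 °C, 20 h, OD600. MIC50/MIC90 at 50%/90% inhibition; n ≥ 3.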
# C. auris TDG 1912 = format: cell-based, Candida auris; conditions: C. auris TDG 1912
# Summary of the method: as §1
# S. aureus (MRSA) USA300 = format: cell-based, Staphylococcus aureus; conditions: S. aureus (MRSA) USA300 (R)
# Summary of the method: as §1
# [1] = test system: S. aureus (MSSA) ATCC 9144; format: cell-based, Staphylococcus aureus; conditions: S. aureus (MSSA) ATCC 9144 (S)
# Summary of the method: as §1
# [2] = test system: S. aureus (MRSA) NCTC 13616; format: cell-based, Staphylococcus aureus; conditions: S. aureus (MRSA) NCTC 13616 (R)
# Summary of the method: as §1
# S. aureus (MRSA) 1199B = format: cell-based, Staphylococcus aureus; conditions: S. aureus (MRSA) 1199B (R)
# Summary of the method: as §1
# A. baumannii AYE = format: cell-based, Acinetobacter baumannii; conditions: A. baumannii AYE (R)
# Summary of the method: as §1
# A. baumannii ATCC 17978 = format: cell-based, Acinetobacter baumannii; conditions: A. baumannii ATCC 17978 (S)
# Summary of the method: as §1
# C. albicans NCPF 3281 = format: cell-based; conditions: C. albicans NCPF 3281
# Summary of the method: as §1
# C. krusei NCPF 3876 = format: cell-based; conditions: C. krusei NCPF 3876
# Summary of the method: as §1
# C. glabrata NCPF 8018 = format: cell-based; conditions: C. glabrata NCPF 8018
# Summary of the method: as §1
# [3] = test system: C. parapsilosis NCPF 3209; format: cell-based; conditions: C. parapsilosis NCPF 3209
# Summary of the method: as §1
# K. pneumoniae NCTC 13368 = format: cell-based, Klebsiella pneumoniae; conditions: K. pneumoniae NCTC 13368 (R)
# Summary of the method: as §1
# K. pneumoniae M6 = format: cell-based, Klebsiella pneumoniae; conditions: K. pneumoniae M6 (S)
# Summary of the method: as §1
# E. coli LEC001 = format: cell-based, Escherichia coli; conditions: E. coli LEC001 (R)
# Summary of the method: as §1
# E. coli NCTC 12923 = format: cell-based, Escherichia coli; conditions: E. coli NCTC 12923 (S)
# Summary of the method: as §1
# [4] = MHB, 37 °C, 20 h, OD600, min. three biological repeats
# [5] = 50% growth inhibition, RPMI 1640 + 2% glucose, 37 °C, 20 h, OD600
# [6] = 90% growth inhibition, RPMI 1640 + 2% glucose, 37 °C, 20 h, OD600
# [7] = 50% growth inhibition, RPMI 1640 + 2% glucose, 37 °C, 20 h
# [8] = 90% growth inhibition, RPMI 1640 + 2% glucose, 37 °C, 20 h
# [9] = MHB, ~5×10^5 CFU/mL, 37 °C, 20 h, OD600, min. three biological repeats
molecule,measurement,setting,value
CC[C@H](C)[C@H](NC(=O)CNC(=O)[C@@H](N)CCCCN)C(=O)N[C@@H](CCCNC(=N)N)C(=O)NCC(=O)N[C@@H](Cc1ccc(O)cc1)C(=O)N[C@@H](CCCCN)C(=O)NCC(=O)NCC(=O)N[C@@H](Cc1ccc(O)cc1)C(=O)N[C@@H](CS)C(=O)N[C@@H](CCCCN)C(=O)NCC(=O)N[C@@H](C)C(=O)N[C@@H](Cc1ccccc1)C(=O)N[C@@H](CCCCN)C(=O)N[C@@H](CCC(N)=O)C(=O)N[C@H](C(=O)N[C@@H](CS)C(=O)N[C@@H](CCCCN)C(=O)N[C@@H](CS)C(=O)N[C@@H](Cc1ccc(O)cc1)C(N)=O)[C@@H](C)O [Osa] (H-KGIRGYKGGYCKGAFKQTCKCY-NH2; N-terminus assumed),Modal MIC,P. aeruginosa NCTC 13437; [4],> 128 µg/mL
same,Modal MIC,P. aeruginosa NCTC 13437; shown in µM,> 51.7 µM
same,Modal MIC50,C. auris TDG 1912; [5],> 128 µg/mL
same,Modal MIC90,C. auris TDG 1912; [6],> 128 µg/mL
same,Modal MIC50,C. auris TDG 1912; shown in µM,> 51.7 µM
same,Modal MIC90,C. auris TDG 1912; shown in µM,> 51.7 µM
same,Modal MIC,S. aureus (MRSA) USA300; [4],> 128 µg/mL
same,Modal MIC,S. aureus (MRSA) USA300; shown in µM,> 51.7 µM
same,Modal MIC,[1]; [4],> 128 µg/mL
same,Modal MIC,[1]; shown in µM,> 51.7 µM
same,Modal MIC,[2]; [4],> 128 µg/mL
same,Modal MIC,[2]; shown in µM,> 51.7 µM
same,Modal MIC,S. aureus (MRSA) 1199B; [4],> 128 µg/mL
same,Modal MIC,S. aureus (MRSA) 1199B; shown in µM,> 51.7 µM
same,Modal MIC,A. baumannii AYE; [4],> 128 µg/mL
same,Modal MIC,A. baumannii AYE; shown in µM,> 51.7 µM
same,Modal MIC,A. baumannii ATCC 17978; [4],> 128 µg/mL
same,Modal MIC,A. baumannii ATCC 17978; shown in µM,> 51.7 µM
same,Modal MIC50,C. albicans NCPF 3281; [7],> 128 µg/mL
same,Modal MIC90,C. albicans NCPF 3281; [8],> 128 µg/mL
same,Modal MIC50,C. albicans NCPF 3281; shown in µM,> 51.7 µM
same,Modal MIC90,C. albicans NCPF 3281; shown in µM,> 51.7 µM
same,Modal MIC50,C. krusei NCPF 3876; [7],> 128 µg/mL
same,Modal MIC90,C. krusei NCPF 3876; [8],> 128 µg/mL
same,Modal MIC50,C. krusei NCPF 3876; shown in µM,> 51.7 µM
same,Modal MIC90,C. krusei NCPF 3876; shown in µM,> 51.7 µM
same,Modal MIC50,C. glabrata NCPF 8018; [7],> 128 µg/mL
same,Modal MIC90,C. glabrata NCPF 8018; [8],> 128 µg/mL
same,Modal MIC50,C. glabrata NCPF 8018; shown in µM,> 51.7 µM
same,Modal MIC90,C. glabrata NCPF 8018; shown in µM,> 51.7 µM
same,Modal MIC50,[3]; [7],> 128 µg/mL
same,Modal MIC90,[3]; [8],> 128 µg/mL
same,Modal MIC50,[3]; shown in µM,> 51.7 µM
same,Modal MIC90,[3]; shown in µM,> 51.7 µM
same,Modal MIC,K. pneumoniae NCTC 13368; [4],> 128 µg/mL
same,Modal MIC,K. pneumoniae NCTC 13368; shown in µM,> 51.7 µM
same,Modal MIC,K. pneumoniae M6; [4],> 128 µg/mL
same,Modal MIC,K. pneumoniae M6; shown in µM,> 51.7 µM
same,Modal MIC,E. coli LEC001; [4],> 128 µg/mL
same,Modal MIC,E. coli LEC001; shown in µM,> 51.7 µM
same,Modal MIC,E. coli NCTC 12923; [9],> 128 µg/mL
same,Modal MIC,E. coli NCTC 12923; shown in µM,> 51.7 µM
"KCLTLRSLKKTLKFCASGRT-NH2 [X1-20a, novel amidated frog AMP derivative, Xenopus laevis]",Modal MIC,P. aeruginosa NCTC 13437; [4],> 128 µg/mL
same,Modal MIC,P. aeruginosa NCTC 13437; shown in µM,> 55 µM
same,Modal MIC50,C. auris TDG 1912; shown in µM,> 55 µM
same,Modal MIC90,C. auris TDG 1912; shown in µM,> 55 µM
same,Modal MIC,S. aureus (MRSA) USA300; [4],> 128 µg/mL
same,Modal MIC,S. aureus (MRSA) USA300; shown in µM,> 55 µM
same,Modal MIC,[1]; [4],16 µg/mL
same,Modal MIC,[1]; shown in µM,6.9 µM
same,Modal MIC,[2]; [4],> 128 µg/mL
same,Modal MIC,[2]; shown in µM,> 55 µM
same,Modal MIC,S. aureus (MRSA) 1199B; shown in µM,> 55 µM
same,Modal MIC,A. baumannii AYE; [4],16 µg/mL
same,Modal MIC,A. baumannii AYE; shown in µM,6.9 µM
same,Modal MIC,A. baumannii ATCC 17978; [4],16 µg/mL
same,Modal MIC,A. baumannii ATCC 17978; shown in µM,6.9 µM
same,Modal MIC50,C. albicans NCPF 3281; [7],> 128 µg/mL
same,Modal MIC90,C. albicans NCPF 3281; [8],> 128 µg/mL
same,Modal MIC50,C. albicans NCPF 3281; shown in µM,> 55 µM
same,Modal MIC90,C. albicans NCPF 3281; shown in µM,> 55 µM
same,Modal MIC50,C. krusei NCPF 3876; [7],64 µg/mL
same,Modal MIC90,C. krusei NCPF 3876; [8],64 µg/mL
same,Modal MIC50,C. krusei NCPF 3876; shown in µM,27.5 µM
same,Modal MIC90,C. krusei NCPF 3876; shown in µM,27.5 µM
same,Modal MIC50,C. glabrata NCPF 8018; [7],> 128 µg/mL
same,Modal MIC90,C. glabrata NCPF 8018; [8],> 128 µg/mL
same,Modal MIC50,C. glabrata NCPF 8018; shown in µM,> 55 µM
same,Modal MIC90,C. glabrata NCPF 8018; shown in µM,> 55 µM
same,Modal MIC50,[3]; [7],> 128 µg/mL
same,Modal MIC90,[3]; [8],> 128 µg/mL
same,Modal MIC50,[3]; shown in µM,> 55 µM
same,Modal MIC90,[3]; shown in µM,> 55 µM
same,Modal MIC,K. pneumoniae NCTC 13368; [4],64 µg/mL
same,Modal MIC,K. pneumoniae NCTC 13368; shown in µM,27.5 µM
same,Modal MIC,K. pneumoniae M6; [4],32 µg/mL
same,Modal MIC,K. pneumoniae M6; shown in µM,13.8 µM
same,Modal MIC,E. coli LEC001; [4],> 128 µg/mL
same,Modal MIC,E. coli LEC001; shown in µM,> 55 µM
same,Modal MIC,E. coli NCTC 12923; [9],8 µg/mL
same,Modal MIC,E. coli NCTC 12923; shown in µM,3.4 µM
CC(C)C[C@H](NC(=O)[C@H](CCCCN)NC(=O)[C@H](CO)NC(=O)[C@H](CCCCN)NC(=O)[C@H](Cc1c[nH]c2ccccc12)NC(=O)[C@H](C)NC(=O)[C@H](CCCCN)NC(=O)[C@@H](N)CCCCN)C(=O)N[C@@H](C)C(=O)N[C@@H](CCCCN)C(=O)N[C@@H](CCCCN)C(=O)N[C@@H](CC(C)C)C(=O)N[C@@H](CCCNC(=N)N)C(=O)N[C@@H](C)C(=O)N[C@@H](CCCCN)C(=O)NCC(=O)N[C@@H](CCCCN)C(N)=O [PS-PB-14a] (H-KKAWKSKLAKKLRAKGK-NH2),Modal MIC,P. aeruginosa NCTC 13437; [4],> 128 µg/mL
same,Modal MIC,P. aeruginosa NCTC 13437; shown in µM,> 63.8 µM
same,Modal MIC50,C. auris TDG 1912; [5],> 128 µg/mL
same,Modal MIC90,C. auris TDG 1912; [6],> 128 µg/mL
same,Modal MIC50,C. auris TDG 1912; shown in µM,> 63.8 µM
same,Modal MIC90,C. auris TDG 1912; shown in µM,> 63.8 µM
same,Modal MIC,S. aureus (MRSA) USA300; [4],> 128 µg/mL
same,Modal MIC,S. aureus (MRSA) USA300; shown in µM,> 63.8 µM
same,Modal MIC,[1]; [4],> 128 µg/mL
same,Modal MIC,[1]; shown in µM,> 63.8 µM
same,Modal MIC,[2]; [4],> 128 µg/mL
same,Modal MIC,[2]; shown in µM,> 63.8 µM
same,Modal MIC,S. aureus (MRSA) 1199B; [4],> 128 µg/mL
same,Modal MIC,S. aureus (MRSA) 1199B; shown in µM,> 63.8 µM
same,Modal MIC,A. baumannii AYE; [4],> 128 µg/mL
same,Modal MIC,A. baumannii AYE; shown in µM,> 63.8 µM
same,Modal MIC,A. baumannii ATCC 17978; [4],> 128 µg/mL
same,Modal MIC,A. baumannii ATCC 17978; shown in µM,> 63.8 µM
same,Modal MIC50,C. albicans NCPF 3281; [7],> 128 µg/mL
same,Modal MIC90,C. albicans NCPF 3281; [8],> 128 µg/mL
same,Modal MIC50,C. albicans NCPF 3281; shown in µM,> 63.8 µM
same,Modal MIC90,C. albicans NCPF 3281; shown in µM,> 63.8 µM
same,Modal MIC50,C. krusei NCPF 3876; [7],> 128 µg/mL
same,Modal MIC90,C. krusei NCPF 3876; [8],> 128 µg/mL
same,Modal MIC50,C. krusei NCPF 3876; shown in µM,> 63.8 µM
same,Modal MIC90,C. krusei NCPF 3876; shown in µM,> 63.8 µM
same,Modal MIC50,C. glabrata NCPF 8018; [7],> 128 µg/mL
same,Modal MIC90,C. glabrata NCPF 8018; [8],> 128 µg/mL
same,Modal MIC50,C. glabrata NCPF 8018; shown in µM,> 63.8 µM
same,Modal MIC90,C. glabrata NCPF 8018; shown in µM,> 63.8 µM
same,Modal MIC50,[3]; [7],> 128 µg/mL
same,Modal MIC90,[3]; [8],> 128 µg/mL
same,Modal MIC50,[3]; shown in µM,> 63.8 µM
same,Modal MIC90,[3]; shown in µM,> 63.8 µM
same,Modal MIC,K. pneumoniae NCTC 13368; [4],> 128 µg/mL
same,Modal MIC,K. pneumoniae NCTC 13368; shown in µM,> 63.8 µM
same,Modal MIC,K. pneumoniae M6; [4],> 128 µg/mL
same,Modal MIC,K. pneumoniae M6; shown in µM,> 63.8 µM
same,Modal MIC,E. coli LEC001; [4],> 128 µg/mL
same,Modal MIC,E. coli LEC001; shown in µM,> 63.8 µM
same,Modal MIC,E. coli NCTC 12923; [9],> 128 µg/mL
same,Modal MIC,E. coli NCTC 12923; shown in µM,> 63.8 µM
